Marks after values point to notes of the source that are not given here.
Assays:
[1] = test system: Pentetrazol (PTZ) ignited rat epilepsy model; test: Pentetrazol (PTZ)-ignited rat epilepsy model; type: in vivo, SD rats; settings: for mortality rate / Numbers of deaths (Number): 10 days
Procedure: Rats were injected intraperitoneally with PTZ at a dose of 35 mg/kg (7 mg/ml, 0.5 ml/100 g body weight) for sub-convulsions three times weekly. The animals are weighed before each ip, and observed for behavioral changes after ip. within 1-2 h. Behavioral scoring was carried out according to the revised Racine score. Three consecutive occurrences of seizures of stage IV and above indicate successful ignition.
The animals successfully ignited were chosen to be grouped. The animals were randomly divided into 4 groups, 8-10/group. […] 3 times of clinical dose were chosen, that is, 500 mg/kg. […] The dosage is 1 ml/100 g, continuous intragastrical administration of 10 days. Specific dose settings are as follows:
PTZ 35 mg/kg. The animals are observed for behavioral changes within 2 h. Behavioral scoring was carried out according to the revised Racine score, continuous administration for 10 days, grading standards as mentioned above.
The seizures were recorded daily ip PTZ within 2 h. The seizure levels, latencies, mortality were recorded, and compared with the model control group.

[2] = test system: lithium chloride-pilocarpine epilepsy model rat; test: Lithium chloride-pilocarpine rat epilepsy model, prophylactic administration; type: in vivo, SD rats; settings: 120 mg/kg for 7 days before modeling, 10 rats
Description: Stages: epileptic seizures evaluation are categorized by Racine Stages
Stage 0: no signs of any seizure;
Stage I: staring, head and face slightly trembling;
Stage II: head nodding or wet dog-like shaking;
Stage III: forelimb limit convulsions;
Stage IV: full-body ankylosing convulsions with a standing hind limb;
Stage V: full-body ankylosing clonic seizures with standing with fell;
Partial epilepsy seizure occurs when any one of Stage Ito Stage III appears;
Generalized epilepsy seizure occurs when Stage IV or Stage V appears;
Status epilepticus (SE) occurs when Stage IV or Stage V lasts 30 minutes.
The rat epilepsy models were treated with lithium chloride-pilocarpine and used levetiracetam as positive control. The duration of acute seizures of lithium chloride-pilocarpine epilepsy model rat was selected as the observation time, and prophylactic administration was used.
Animals were randomly divided into 4 groups, 10/group. Levetiracetam was selected as a positive control, 1.5 times of clinical dose were chosen, that is, 150 mg/kg. The clinical dose of an adult is 800 mg/times, twice daily, that is, 1600 mg/60 kg, 26.7 mg/kg. The dose of a rat is converted to 160 mg/kg according to body surface area. R-oxiracetam and levorotatory oxiracetam were selected half of the dose, that is, 80 mg/kg, and 1.5 times is 120 mg/kg. The dose was 1 ml/100 g, and the rats were treated with continuous administration for 7 days. As levetiracetam administration of 1.3 h (80 min), the plasma concentration peak, so we choose the last 80 minutes after the last administration of modeling. As administration of levetiracetam for 1.3 h (80 min), the plasma concentration peak was reached, so each group was selected after the last 80 minutes after the start of modeling.
Modeling method: After several previous test, the following modeling method was chosen: Animal ip. Lithium chloride 3 mmol/kg (1.5 ml/L) 127 mg/kg (12.7 mg/ml, 1 ml/100 g body weight), 24 h, 37.5 mg/kg pilocarpine three times ip. mg/kg (2.5 mg/ml, 0.5 ml/100 g body weight) at intervals of 10 minutes. […]

`NC(=O)CN1C[C@H](O)CC1=O` [R-oxiracetam, (R)-4-hydroxy-2-oxo-1-pyrrolidineacetamide] was tested. Which “Seizure latency (X ± SD)” value ([1]; High-dose 360 mg/kg daily, D1) did it give?
The value was 3.83 ± 1.17 m.

And the “occurrence rates of stage IV or above seizures” value (shortened to “occurrence rates”) ([1]; High-dose 360 mg/kg daily, D1)?
Its value is 4/6 (66.7) %.

And the “Seizure latency (X ± SD)” value ([1]; High-dose 360 mg/kg daily, D2)?
Its value is 5.00 ± 0.89 m.

And the “occurrence rates” value ([1]; High-dose 360 mg/kg daily, D2)?
The value was 3/6(50.0) %.

What about the “Seizure latency (X ± SD)” value ([1]; High-dose 360 mg/kg daily, D3) of the same compound?
Its value is 6.17 ± 1.17 m.

What about the “occurrence rates” value ([1]; High-dose 360 mg/kg daily, D3) of the same compound?
Its value is 3/6 (50.0) %.

And the “Seizure latency (X ± SD)” value ([1]; High-dose 360 mg/kg daily, D4)?
Its value is 6.50 ± 1.05 m.

And the “occurrence rates” value ([1]; High-dose 360 mg/kg daily, D4)?
Its value is 2/6 (33.3) %.

What about the “Seizure latency (X ± SD)” value ([1]; High-dose 360 mg/kg daily, D5) of the same compound?
The value was 7.17 ± 0.75 m.

What about the “occurrence rates” value ([1]; High-dose 360 mg/kg daily, D5) of the same compound?
Its value is 1/6 (16.7) %.

What about the “Seizure latency (X ± SD)” value ([1]; High-dose 360 mg/kg daily, D6) of the same compound?
The value was 7.83 ± 0.75 m.

What about the “occurrence rates” value ([1]; High-dose 360 mg/kg daily, D6) of the same compound?
The value was 1/6 (16.7) %.

What about the “Seizure latency (X ± SD)” value ([1]; High-dose 360 mg/kg daily, D7) of the same compound?
Its value is 8.33 ± 1.03 m.

And the “occurrence rates” value ([1]; High-dose 360 mg/kg daily, D7)?
The value was 0/6** (0) %.

And the “Seizure latency (X ± SD)” value ([1]; High-dose 360 mg/kg daily, D8)?
The value was 8.83 ± 0.98 m.

And the “occurrence rates” value ([1]; High-dose 360 mg/kg daily, D8)?
The value was 0/6** (0) %.

What about the “Seizure latency (X ± SD)” value ([1]; High-dose 360 mg/kg daily, D9) of the same compound?
The value was 8.83 ± 0.75 m.

What about the “occurrence rates” value ([1]; High-dose 360 mg/kg daily, D9) of the same compound?
The value was 0/6* (0) %.

What about the “Seizure latency (X ± SD)” value ([1]; High-dose 360 mg/kg daily, D10) of the same compound?
Its value is 9.83 ± 0.75 m.

What about the “occurrence rates” value ([1]; High-dose 360 mg/kg daily, D10) of the same compound?
The value was 0/6* (0) %.

And the mortality rate ([1]; High-dose 360 mg/kg intragastric)?
The mortality rate was 0%.

And the “Numbers of deaths (Number)” value ([1]; High-dose 360 mg/kg intragastric, 6 animals, 360 mg/kg)?
Its value is “No animal died”.

And the “Numbers of deaths (Number)” value ([1]; High-dose 360 mg/kg intragastric, 6 animals, listed as R-Oxiracetam, 360 mg/kg)?
Its value is 0.

And the “Seizure latency (X ± SD)” value ([1]; Low-dose 120 mg/kg daily, D1)?
The value was 3.57 ± 1.51 m.

And the “occurrence rates” value ([1]; Low-dose 120 mg/kg daily, D1)?
The value was 4/7 (57.1) %.

What about the “Seizure latency (X ± SD)” value ([1]; Low-dose 120 mg/kg daily, D2) of the same compound?
Its value is 4.57 ± 1.72 m.

And the “occurrence rates” value ([1]; Low-dose 120 mg/kg daily, D2)?
The value was 4/6(66.7) %.

And the “Seizure latency (X ± SD)” value ([1]; Low-dose 120 mg/kg daily, D3)?
Its value is 5.00 ± 1.15 m.

What about the “occurrence rates” value ([1]; Low-dose 120 mg/kg daily, D3) of the same compound?
The value was 3/6 (50.0) %.

What about the “Seizure latency (X ± SD)” value ([1]; Low-dose 120 mg/kg daily, D4) of the same compound?
The value was 4.86 ± 1.07 m.

What about the “occurrence rates” value ([1]; Low-dose 120 mg/kg daily, D4) of the same compound?
The value was 2/6 (33.3) %.

What about the “Seizure latency (X ± SD)” value ([1]; Low-dose 120 mg/kg daily, D5) of the same compound?
The value was 5.43 ± 0.98 m.

What about the “occurrence rates” value ([1]; Low-dose 120 mg/kg daily, D5) of the same compound?
The value was 2/6 (33.3) %.

What about the “Seizure latency (X ± SD)” value ([1]; Low-dose 120 mg/kg daily, D6) of the same compound?
Its value is 6.29 ± 1.11 m.

And the “occurrence rates” value ([1]; Low-dose 120 mg/kg daily, D6)?
Its value is 2/6 (33.3) %.

And the “Seizure latency (X ± SD)” value ([1]; Low-dose 120 mg/kg daily, D7)?
Its value is 6.86 ± 1.07 m.

What about the “occurrence rates” value ([1]; Low-dose 120 mg/kg daily, D7) of the same compound?
The value was 1/6* (16.7) %.

What about the “Seizure latency (X ± SD)” value ([1]; Low-dose 120 mg/kg daily, D8) of the same compound?
Its value is 7.14 ± 1.07 m.

What about the “occurrence rates” value ([1]; Low-dose 120 mg/kg daily, D8) of the same compound?
The value was 1/6* (16.7) %.

What about the “Seizure latency (X ± SD)” value ([1]; Low-dose 120 mg/kg daily, D9) of the same compound?
Its value is 7.71 ± 0.76 m.

And the “occurrence rates” value ([1]; Low-dose 120 mg/kg daily, D9)?
The value was 0/6* (0) %.

And the “Seizure latency (X ± SD)” value ([1]; Low-dose 120 mg/kg daily, D10)?
Its value is 8.43 ± 0.98 m.

And the “occurrence rates” value ([1]; Low-dose 120 mg/kg daily, D10)?
Its value is 0/6* (0) %.

And the mortality rate ([1]; Low-dose 120 mg/kg intragastric)?
Its mortality rate is 14.3%.

What about the “Numbers of deaths (Number)” value ([1]; Low-dose 120 mg/kg intragastric, 7 animals, 120 mg/kg) of the same compound?
The value was “No animal died”.

What about the “Numbers of deaths (Number)” value ([1]; Low-dose 120 mg/kg intragastric, 7 animals, listed as R-Oxiracetam, 120 mg/kg) of the same compound?
Its value is 1.

And the “Latency Stage I” value [2]?
The value was 19.6 ± 4.4 min.

And the “Latency Stage II” value [2]?
Its value is 34.7 ± 15.2 min.

What about the “Latency Stage III” value [2] of the same compound?
Its value is 40.2 ± 12.1 min.

What about the “Latency Stage IV” value [2] of the same compound?
The value was 35.0 ± 2.8 min.

What about the “Latency Stage V” value [2] of the same compound?
Its value is 38.0 ± 2.8 min.

What about the “Number of Deaths” value [2] of the same compound?
The value was 1.

And the “Number of SE Animals” value [2]?
Its value is 2.

And the “Number of seizures Stage I” value [2]?
Its value is 2.3 ± 1.2 times.

And the “Number of seizures Stage II” value [2]?
The value was 6.8 ± 3.7 times.

And the “Number of seizures Stage III” value [2]?
The value was 6.4 ± 3.6 times.

And the “Occurrence rate Stage I” value [2]?
Its value is 10%.

And the “Occurrence rate Stage II” value [2]?
Its value is 10%.

And the “Occurrence rate Stage III” value [2]?
Its value is 5%.

And the “Occurrence rate Stage IV” value [2]?
Its value is 2* %.

What about the “Occurrence rate Stage V” value [2] of the same compound?
The value was 2%.

What about the “duration Stage IV” value [2] of the same compound?
The value was 10.0 ± 1.4 min.

And the “duration Stage V” value [2]?
The value was 26.5 ± 0.7 min.

And the “number of animals having stage IV” value ([2]; P<0.05 vs model control)?
The value was 20%.

And the mortality rate ([2]; within 1 to 7 days after modeling)?
Its mortality rate is 10%.

Reference: US20180147183A1, “USE OF R-OXIRACETAM IN PHARMACEUTICAL FIELD” (Chongqing Runze Pharmaceutical Co., Ltd., priority 2015, published 2018)
